Measurements as given in patent US20020137781A1, “Preparation and use of enantiomer-pure 2,4-disubstituted oxazolines” (priority 1999, published 2002).

Experiments:
Diabrotica balteata = test: Effect on Diabrotica balteata larvae; type: in vivo; conditions: 400 ppm spray on corn seedlings, second instar larvae, six days
Protocol: Corn seedlings are sprayed with an aqueous emulsion spray mixture containing 400 ppm of active ingredient. After drying of the spray deposit, the corn seedlings are colonised with 10 second instar larvae of Diabrotica balteata and placed in a plastic container. Six days later they are evaluated. The percentage reduction of the population (% response) is determined by comparing the number of dead larvae on the treated plants with those on the untreated plants.

[1] = tested on: Musca domestica of an OP-resistant strain; test: Effect against Musca domestica; type: in vivo; conditions: 250 ppm in sugar cube, 25° C., after 24 hours, read-out: mortality rate (response)
Protocol: A sugar cube is treated with a solution of the test substance in such a way that the concentration of test substance in the sugar, after drying over night, is 250 ppm. The cube treated in this way is placed on an aluminium dish with wet cottonwool and 10 adult Musca domestica of an OP-resistant strain. It is covered with a beaker and incubated at 25° C. The mortality rate is determined after 24 hours.

Ctenocephalides felis = test: In vitro effect on eggs, larvae, or pupae of the cat flea Ctenocephalides felis; conditions: 15, 1.5, 0.15 and 0.015 ppm test solutions, after 21 days
Protocol: Acetonic test solutions are prepared containing test substances in concentrations of 15, 1.5, 0.15 and 0.015 ppm. 9.9 ml of each test solution is mixed with 14.85 g of culture medium for flea larvae and dried for about 12 hours. The slightly clumped, dry culture medium is mechanically pulverized again until it is homogeneous and free-flowing. It is then transferred to bottles for the breeding of fleas. To each bottle, 100 to 200 flea eggs are added, the bottles are loosely closed with a wad of cottonwool and placed in an incubator at 25 to 26° C. and a relative humidity of about 60%. After 21 days, the effect of the test substances in the different concentrations is evaluated and the lowest effective concentration determined using a stereomicroscope. The activity is evaluated on the basis of the hatching rate, larva development, pupation, and the hatching of young fleas. Enantiomers A of formula (I) show a pronounced effect in this test.

Crocidolomia binotalis = test: Effect against Crocidolomia binotalis; type: in vivo; conditions: 400 ppm spray on cabbage plants, third-instar caterpillars, three days
Protocol: Young cabbage plants are sprayed with an aqueous emulsion spray mixture containing 400 ppm of active ingredient. After the spray coating has dried on, the cabbage plants are colonised with 10 third-instar caterpillars of Crocidolomia binotalis and placed in a plastic container. Three days later they are evaluated. The percentage reduction of the population and of the feeding damage (% response) is determined by comparing the total number of dead caterpillars and the feeding damage on the treated plants with those on the untreated plants.

Heliothis virescens = test: Ovicidal/larvicidal effect on Heliothis virescens; type: in vivo; conditions: 400 ppm spray on eggs laid on cotton, after 8 days
Source text: Eggs of Heliothis virescens laid on cotton are sprayed with an aqueous emulsion spray mixture containing 400 ppm of active ingredient. After 8 days, the percentage hatching rate of the eggs and the survival rate of the caterpillars are compared with those for untreated controls (% reduction of population)

Plutella xylostella = test: Effect against Plutella xylostella caterpillars; type: in vivo; conditions: 400 ppm spray on cabbage plants, third-instar caterpillars, three days
Protocol: Young cabbage plants are sprayed with an aqueous emulsion spray mixture containing 400 ppm of active ingredient. After the spray coating has dried on, the cabbage plants are colonised with 10 third-instar caterpillars of Plutella xylostella and placed in a plastic container. Three days later they are evaluated. The percentage reduction of the population and percentage reduction in feeding damage (% response) is determined by comparing the number of dead larvae and the extent of feeding damage on the treated plants with those on the untreated plants.

Boophilus microplus = test: In vitro effect on Boophilus microplus; conditions: 100 to 0.32 ppm; BIARRA and ULAM strain identical
Protocol: Four test series each of 10 engorged female adults of Boophilus microplus are stuck to a plastic plate and covered for 1 hour with a wad of cottonwool soaked with an aqueous suspension or emulsion of the test substance. The test is carried out with concentrations of 100, 32, 10, 3.2, 1.0 and 0.32 ppm. The wad of cottonwool is then removed, and the ticks are incubated for 28 days for the eggs to be laid. The effect on Boophilus microplus is assessed according to the following 5 criteria:
1. Number of dead females (immobile with black discoloration) before ovipositon;
2. Number of ticks surviving for several days, but no eggs laid;
3. Number of cases in which eggs are laid, but nothing is hatched;
This test is carried out with both the BIARRA and the ULAM strain, and the results in both cases are identical.

Panonychus ulmi = test: Effect against Panonychus ulmi (resistant to organophosphates und carbaryl); type: in vivo; conditions: 400 ppm spray on apple seedlings, after 14 days
Protocol: Apple seedlings are colonised with adult females of Panonychus ulmi. After seven days, the infected plants are sprayed with an aqueous emulsion spray mixture containing 400 ppm of the test compound until they are dripping wet, and cultivated in the greenhouse. After 14 days, they are evaluated. The percentage reduction of the population (% response) is determined by comparing the number of dead spider mites on the treated plants with those on the untreated plants.

Fc1cccc(F)c1C1=NC(c2ccc(-c3ccc(C(F)(F)F)cc3)cc2)CO1 (single isomer, unassigned) [1.1, 2-(2,6-difluoro-phenyl)-4-(4′-trifluoromethylbiphenyl-4-yl)-4,5-dihydro-oxazole]
percentage reduction of the population (% response) (Diabrotica balteata): more than 80%
mortality at 250 ppm [1]: > 80%
effect on hatching rate, larva development, pupation and hatching of young fleas (in words) (Ctenocephalides felis): most active test substance
percentage reduction of the population and of the feeding damage (% response) (Crocidolomia binotalis): more than 80%
% reduction of population (hatching rate of eggs and survival rate of caterpillars) (Heliothis virescens): more than 80%
percentage reduction of the population and percentage reduction in feeding damage (% response) (Plutella xylostella): more than 80%
activity on Boophilus microplus (in words) (Boophilus microplus): most active test substance
percentage reduction of the population (% response) (Panonychus ulmi): more than 80%
